Assays:
[1] = target: T1, human sodium channels Nav 1.7 (Homo sapiens, UniProt Q15858); assay: Automated whole-cell voltage-clamp (ScreenPatch 384P) sodium current block, Nav 1.7; type: cell-based; settings: CHO cells stably expressing human Nav 1.7; inactivation step -40 mV 8 s, test step 0 mV (TP1A); eight concentrations; exposure at least five minutes; room temperature; read-out: Nav1.7 IC50
T1 construct: expressed in transfected cells
Procedure, shortened: (§1)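 Stable CHO lines, whole-cell automated patch clamp at room temperature, ≥5 min exposure, eight concentrations. From -100 mV hold, 8 s at -40 mV, 20 ms at -100 mV, then test pulse to 10 mV (Nav 1.8) or 0 mV (Nav 1.7) at 0.05 Hz; peak-current % block fitted for IC50, averaged over repeats.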

[2] = target: T2, human sodium channels Nav 1.8 (Homo sapiens, UniProt Q9Y5Y9); assay: Automated whole-cell voltage-clamp (ScreenPatch 384P) sodium current block, Nav 1.8; type: cell-based; settings: CHO cells stably expressing human Nav 1.8; inactivation step -40 mV 8 s, test step 10 mV (TP1A); eight concentrations; exposure at least five minutes; room temperature; read-out: Nav1.8 IC50
T2 construct: expressed in transfected cells
Procedure, shortened: as §1

T2 sequence (Q9Y5Y9 whole entry): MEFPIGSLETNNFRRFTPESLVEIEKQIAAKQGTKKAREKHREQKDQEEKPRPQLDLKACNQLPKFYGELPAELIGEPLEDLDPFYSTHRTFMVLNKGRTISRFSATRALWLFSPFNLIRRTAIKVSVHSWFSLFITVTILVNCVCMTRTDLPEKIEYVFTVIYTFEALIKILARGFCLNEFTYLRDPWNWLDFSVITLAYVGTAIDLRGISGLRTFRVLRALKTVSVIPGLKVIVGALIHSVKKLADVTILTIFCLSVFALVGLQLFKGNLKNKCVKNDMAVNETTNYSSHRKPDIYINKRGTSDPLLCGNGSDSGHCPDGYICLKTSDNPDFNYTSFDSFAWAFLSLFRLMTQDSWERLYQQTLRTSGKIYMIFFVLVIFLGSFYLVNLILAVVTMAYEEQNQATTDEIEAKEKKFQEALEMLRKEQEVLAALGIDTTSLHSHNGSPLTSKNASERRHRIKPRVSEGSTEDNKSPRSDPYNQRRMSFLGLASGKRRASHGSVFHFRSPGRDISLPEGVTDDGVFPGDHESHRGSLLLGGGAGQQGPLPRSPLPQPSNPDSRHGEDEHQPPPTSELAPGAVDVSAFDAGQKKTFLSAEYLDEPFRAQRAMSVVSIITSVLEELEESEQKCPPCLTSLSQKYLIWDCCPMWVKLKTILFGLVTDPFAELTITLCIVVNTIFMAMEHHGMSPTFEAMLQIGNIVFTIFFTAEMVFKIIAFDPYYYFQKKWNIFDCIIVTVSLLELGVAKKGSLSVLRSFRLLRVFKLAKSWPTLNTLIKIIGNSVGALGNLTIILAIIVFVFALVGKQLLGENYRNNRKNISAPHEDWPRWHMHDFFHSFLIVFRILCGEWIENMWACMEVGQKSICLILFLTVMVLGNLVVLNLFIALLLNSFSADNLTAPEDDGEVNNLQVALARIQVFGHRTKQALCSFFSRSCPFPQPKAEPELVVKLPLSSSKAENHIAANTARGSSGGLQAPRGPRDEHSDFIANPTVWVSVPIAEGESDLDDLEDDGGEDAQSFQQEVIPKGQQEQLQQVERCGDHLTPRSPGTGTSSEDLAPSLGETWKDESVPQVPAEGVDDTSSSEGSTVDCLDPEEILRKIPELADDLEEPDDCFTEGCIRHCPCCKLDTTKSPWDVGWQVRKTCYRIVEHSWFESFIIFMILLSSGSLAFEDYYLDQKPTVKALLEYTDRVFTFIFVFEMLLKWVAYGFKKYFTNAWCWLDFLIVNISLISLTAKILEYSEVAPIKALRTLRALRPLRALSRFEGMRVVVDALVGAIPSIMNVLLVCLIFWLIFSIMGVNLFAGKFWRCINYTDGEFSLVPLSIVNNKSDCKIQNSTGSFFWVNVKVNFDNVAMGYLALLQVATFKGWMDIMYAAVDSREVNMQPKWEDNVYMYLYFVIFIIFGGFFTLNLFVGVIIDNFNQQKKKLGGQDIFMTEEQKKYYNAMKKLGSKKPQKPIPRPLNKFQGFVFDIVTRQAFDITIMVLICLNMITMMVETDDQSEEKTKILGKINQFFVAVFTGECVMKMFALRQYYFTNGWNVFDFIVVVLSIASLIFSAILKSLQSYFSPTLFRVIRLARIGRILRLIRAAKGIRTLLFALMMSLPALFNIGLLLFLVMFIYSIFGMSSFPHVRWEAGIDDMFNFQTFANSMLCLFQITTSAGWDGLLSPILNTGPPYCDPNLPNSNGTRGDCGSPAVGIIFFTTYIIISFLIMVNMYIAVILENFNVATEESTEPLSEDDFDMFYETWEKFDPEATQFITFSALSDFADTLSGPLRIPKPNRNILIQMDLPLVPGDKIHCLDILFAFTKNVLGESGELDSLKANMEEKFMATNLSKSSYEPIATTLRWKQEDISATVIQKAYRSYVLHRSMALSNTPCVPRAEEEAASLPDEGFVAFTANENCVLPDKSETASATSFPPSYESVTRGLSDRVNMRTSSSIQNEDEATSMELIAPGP
T1 sequence (Q15858 whole entry): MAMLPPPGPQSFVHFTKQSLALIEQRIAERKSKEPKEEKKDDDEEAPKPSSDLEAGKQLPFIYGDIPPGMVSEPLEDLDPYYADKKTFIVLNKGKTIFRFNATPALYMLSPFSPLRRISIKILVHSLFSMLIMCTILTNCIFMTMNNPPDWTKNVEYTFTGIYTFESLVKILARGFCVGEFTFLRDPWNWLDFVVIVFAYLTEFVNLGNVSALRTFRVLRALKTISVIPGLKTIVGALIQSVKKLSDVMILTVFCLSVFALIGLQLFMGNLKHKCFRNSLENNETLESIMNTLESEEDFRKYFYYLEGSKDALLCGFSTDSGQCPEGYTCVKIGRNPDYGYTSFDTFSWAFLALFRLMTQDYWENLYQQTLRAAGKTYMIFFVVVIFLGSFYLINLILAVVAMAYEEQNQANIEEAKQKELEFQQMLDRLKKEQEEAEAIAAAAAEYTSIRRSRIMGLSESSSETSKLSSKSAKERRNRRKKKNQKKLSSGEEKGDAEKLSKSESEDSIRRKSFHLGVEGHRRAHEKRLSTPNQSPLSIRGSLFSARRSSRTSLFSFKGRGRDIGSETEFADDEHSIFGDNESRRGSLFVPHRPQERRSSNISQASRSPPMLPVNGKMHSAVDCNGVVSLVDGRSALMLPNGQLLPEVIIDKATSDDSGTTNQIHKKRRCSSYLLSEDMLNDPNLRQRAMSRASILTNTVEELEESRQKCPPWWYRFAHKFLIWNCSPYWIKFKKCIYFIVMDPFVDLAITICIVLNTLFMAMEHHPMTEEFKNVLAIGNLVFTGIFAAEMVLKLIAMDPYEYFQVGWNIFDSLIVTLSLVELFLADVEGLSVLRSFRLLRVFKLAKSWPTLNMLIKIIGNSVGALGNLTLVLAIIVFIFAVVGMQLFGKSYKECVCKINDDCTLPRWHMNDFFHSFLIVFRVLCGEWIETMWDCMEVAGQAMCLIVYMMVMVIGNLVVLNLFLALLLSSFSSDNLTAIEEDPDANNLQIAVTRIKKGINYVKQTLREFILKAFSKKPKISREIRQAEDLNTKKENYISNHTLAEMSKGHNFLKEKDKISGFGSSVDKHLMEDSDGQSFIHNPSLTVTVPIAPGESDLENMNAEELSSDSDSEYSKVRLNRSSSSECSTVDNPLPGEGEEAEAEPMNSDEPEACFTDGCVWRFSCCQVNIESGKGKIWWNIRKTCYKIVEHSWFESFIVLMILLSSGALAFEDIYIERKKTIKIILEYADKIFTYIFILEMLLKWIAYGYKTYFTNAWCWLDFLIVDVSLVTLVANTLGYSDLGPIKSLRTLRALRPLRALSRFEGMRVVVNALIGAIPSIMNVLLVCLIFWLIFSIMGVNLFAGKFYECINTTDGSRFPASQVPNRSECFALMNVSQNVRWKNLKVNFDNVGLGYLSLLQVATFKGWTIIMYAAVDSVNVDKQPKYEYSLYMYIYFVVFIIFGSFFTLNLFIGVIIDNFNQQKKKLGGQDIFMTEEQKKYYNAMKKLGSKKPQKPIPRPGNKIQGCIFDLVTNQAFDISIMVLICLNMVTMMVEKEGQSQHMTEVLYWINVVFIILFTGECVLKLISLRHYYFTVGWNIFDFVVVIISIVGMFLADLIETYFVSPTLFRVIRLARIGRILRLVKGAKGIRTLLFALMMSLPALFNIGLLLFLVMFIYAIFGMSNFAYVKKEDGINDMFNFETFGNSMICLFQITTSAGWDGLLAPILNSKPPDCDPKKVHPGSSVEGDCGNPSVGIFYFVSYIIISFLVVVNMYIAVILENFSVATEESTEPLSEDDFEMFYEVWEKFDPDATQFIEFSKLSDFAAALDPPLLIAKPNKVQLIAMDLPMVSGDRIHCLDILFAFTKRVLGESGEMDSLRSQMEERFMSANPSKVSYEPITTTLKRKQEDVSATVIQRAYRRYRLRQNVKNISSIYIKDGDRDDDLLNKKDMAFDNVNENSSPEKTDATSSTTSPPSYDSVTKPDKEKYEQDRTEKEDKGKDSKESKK

Row | Structure (SMILES) | IC50 [1] [nM] | IC50 [2] [nM]
1 | COc1cc(/C=N/NC(=O)c2cncc(-c3ccc(OC(F)(F)F)nc3)n2)c(F)cn1 [Compound 96, (E)-N'-((5-fluoro-2-methoxypyridine-4-yl)methylene)-6-(6-(trifluoromethoxy)pyridine-3-yl)pyrazine-2-carbohydrazide] | > 1000 | < 500
2 | COc1cnc(F)c(/C=N/NC(=O)c2cncc(-c3ccc(OC(F)F)nc3C)n2)c1 [Compound 159, (E)-6-(6-(difluoromethoxy)-2-methylpyridine-3-yl)-N'-((2-fluoro-5-methoxypyridine-3-yl)methylene)pyrazine-2-carbohydrazide] | > 1000 | < 500
3 | CCOc1ccc(-c2cncc(C(=O)N/N=C/c3cc(OC4CNC4)ccc3F)n2)cn1 [Compound 20, (E)-N'-(5-(azetidine-3-yloxy)-2-fluorobenzylidene)-6-(6-ethoxypyridine-3-yl)pyrazine-2-carbohydrazide] | > 1000 | > 1000
4 | [2H]C([2H])([2H])Oc1cnc(F)c(/C=N/NC(=O)c2cncc(-c3ccc(OC([2H])([2H])C)nc3)n2)c1 [Compound 172, (E)-6-(6-(ethoxy-1,1-d2)pyridine-3-yl)-N'-((2-fluoro-5-(methoxy-d3)pyridine-3-yl)methylene)pyrazine-2-carbohydrazide] | > 1000 | < 500
5 | CCOc1ccc(F)c(/C=N/NC(=O)c2cncc(-c3ccc(OC(F)(F)F)nc3)n2)c1 [Compound 91, (E)-N'-(5-ethoxy-2-fluorobenzylidene)-6-(6-(trifluoromethoxy)pyridine-3-yl)pyrazine-2-carbohydrazide] | > 1000 | < 500
6 | CCOc1ccc(-c2cncc(C(=O)N(C)/N=C/c3cc(OC)cnc3F)n2)cn1 [Compound 175, (E)-6-(6-ethoxypyridine-3-yl)-N'-((2-fluoro-5-methoxypyridine-3-yl)methylene)-N-methylpyrazine-2-carbohydrazide] | > 1000 | > 1000
7 | CCOc1ccc(-c2cncc(C(=O)N/N=C/c3cc(N(C)C)ccc3F)n2)cn1 [Compound 11, (E)-N'-(5-(dimethylamino)-2-fluorobenzylidene)-6-(6-ethoxypyridine-3-yl)pyrazine-2-carbohydrazide] | > 1000 | < 500
8 | CCOc1ccc(-c2cncc(C(=O)N/N=C/c3cc(OC)cnc3F)c2)cn1 [Compound 74, (E)-6'-ethoxy-N'-((2-fluoro-5-methoxypyridine-3-yl)methylene)-[3,3'-bipyridine]-5-carbohydrazide] | > 1000 | > 1000
9 | COc1ccc(F)c(/C=N/NC(=O)c2cncc(-c3ccc(OC4CNC4)nc3)n2)c1 [Compound 139, (E)-6-(6-(azetidin-3-yloxy)pyridine-3-yl)-N'-(2-fluoro-5-methoxybenzylidene) pyrazine-2-carbohydrazide] | > 1000 | > 1000
10 | CCOc1ccc(-c2cncc(C(=O)N/N=C/c3cc(OC)ccc3O)n2)cn1 [Compound 19, (E)-6-(6-ethoxypyridine-3-yl)-N'-(2-hydroxy-5-methoxybenzylidene)pyrazine-2-carbohydrazide] | > 1000 | 500 to 1000
11 | O=C(N/N=C/c1ccccn1)c1cncc(-c2ccc(OC(F)(F)F)nc2)n1 [Compound 84, (E)-N'-(pyridine-2-ylmethylene)-6-(6-(trifluoromethoxy)pyridine-3-yl)pyrazine-2-carbohydrazide] | > 1000 | > 1000
12 | CCOc1ccc(-c2nc(C(=O)N/N=C/c3cc(OC)cnc3F)cnc2O)cn1 [Compound 67, (E)-6-(6-ethoxypyridine-3-yl)-N'-((2-fluoro-5-methoxypyridine-3-yl)methylene)-5-hydroxypyrazine-2-carbohydrazide] | > 1000 | > 1000
13 | COc1cnc(F)c(/C=N/NC(=O)c2cncc(-c3ccc(OCC4CNC4)nc3)n2)c1 [Compound 143, (E)-6-(6-(azetidin-3-ylmethoxy)pyridine-3-yl)-N'-((2-fluoro-5-methoxypyridine-3-yl)methylene)pyrazine-2-carbohydrazide] | > 1000 | > 1000
14 | CCOc1cc(C)c(-c2cncc(C(=O)N/N=C/c3cc(OC)cnc3F)n2)cn1 [Compound 151, (E)-6-(6-ethoxy-4-methylpyridine-3-yl)-N'-((2-fluoro-5-methoxypyridine-3-yl)methylene)pyrazine-2-carbohydrazide] | > 1000 | < 500
15 | CCOc1ccc(F)c(/C=N/NC(=O)c2cncc(-c3ccc(OC4CC4)nc3)n2)c1 [Compound 80, (E)-6-(6-cyclopropoxypyridine-3-yl)-N'-(5-ethoxy-2-fluorobenzylidene)pyrazine-2-carbohydrazide] | > 1000 | < 500
16 | CCOc1ncc(-c2cncc(C(=O)N/N=C/c3cc(OC)cnc3F)n2)cc1O [Compound 157, (E)-6-(6-ethoxy-5-hydroxypyridine-3-yl)-N'-((2-fluoro-5-methoxypyridine-3-yl)methylene) pyrazine-2-carbohydrazide] | > 1000 | 500 to 1000

Row | Structure (SMILES) | IC50 [1] [nM] | IC50 [2] [nM]
17 | CCOc1ccc(-c2cncc(C(=O)N/N=C/c3cc(OC4CC4)ccc3F)n2)cn1 [Compound 6, (E)-N'-(5-cyclopropoxy-2-fluorobenzylidene)-6-(6-ethoxypyridine-3-yl)pyrazine-2-carbohydrazide] | > 1000 | < 500
18 | CCOc1ccc(-c2cncc(C(=O)N/N=C/c3c[nH]nc3C)n2)cn1 [Compound 57, (E)-6-(6-ethoxypyridine-3-yl)-N'-((3-methyl-1H-pyrazole-4-yl)methylene)pyrazine-2-carbohydrazide] | > 1000 | > 1000
19 | CCOc1ccc(-c2cncc(C(=O)N/N=C/c3cc(N4CC(O)C4)ccc3F)n2)cn1 [Compound 37, (E)-6-(6-ethoxypyridine-3-yl)-N'-(2-fluoro-5-(3-hydroxyazetidine-1-yl)benzylidene) pyrazine-2-carbohydrazide] | > 1000 | > 1000
20 | O=C(N/N=C/c1cccnc1)c1cncc(-c2ccc(OC(F)(F)F)nc2)n1 [Compound 86, (E)-N'-(pyridine-3-ylmethylene)-6-(6-(trifluoromethoxy)pyridine-3-yl)pyrazine-2-carbohydrazide] | > 1000 | > 1000
21 | COc1ccc(F)c(/C=N/NC(=O)c2cncc(-c3ccc(OCCC4CN(C)C4)nc3)n2)c1 [Compound 147, (E)-N'-(2-fluoro-5-methoxybenzylidene)-6-(6-(2-(1-methylazetidine-3-yl)ethoxy)pyridine-3-yl)pyrazine-2-carbohydrazide] | > 1000 | > 1000
22 | COc1cnc(F)c(/C=N/NC(=O)c2ccnc(-c3ccc(OC(F)F)nc3)n2)c1 [Compound 126, (E)-2-(6-(difluoromethoxy)pyridine-3-yl)-N'-((2-fluoro-5-methoxypyridine-3-yl)methylene) pyrimidine-4-carbohydrazide] | > 1000 | 500 to 1000
23 | COc1ccc(F)c(/C=N/NC(=O)c2cncc(-c3ccc(OCCN)nc3)n2)c1 [Compound 135, (E)-6-(6-(2-aminoethoxy)pyridine-3-yl)-N'-(2-fluoro-5-methoxybenzylidene) pyrazine-2-carbohydrazide] | > 1000 | > 1000
24 | COc1ccc(F)c(/C=N/NC(=O)c2cncc(-c3ccc(C#N)nc3)n2)c1 [Compound 130, (E)-6-(6-cyanopyridine-3-yl)-N'-(2-fluoro-5-methoxybenzylidene)pyrazine-2-carbohydrazide] | > 1000 | > 1000
25 | CCOc1ccc(-c2cncc(C(=O)N/N=C/c3cc(OC)cc(O)c3F)n2)cn1 [Compound 44, (E)-6-(6-ethoxypyridine-3-yl)-N'-(2-fluoro-3-hydroxy-5-methoxybenzylidene) pyrazine-2-carbohydrazide] | > 1000 | > 1000
26 | CCOc1ccc(-c2cncc(C(=O)N/N=C/c3cc(C(C)O)ccc3F)n2)cn1 (centres unmarked) [Compound 23, (E)-6-(6-ethoxypyridine-3-yl)-N'-(2-fluoro-5-(1-hydroxyethyl)benzylidene)pyrazine-2-carbohydrazide] | > 1000 | < 500
27 | COc1cnc(F)c(/C=N/NC(=O)c2cncc(-c3ccc(O)nc3)n2)c1 [Compound 167, (E)-N'-((2-fluoro-5-methoxypyridine-3-yl)methylene)-6-(6-hydroxypyridine-3-yl) pyrazine-2-carbohydrazide] | > 1000 | > 1000
28 | O=C(N/N=C/c1cc(OC2CC2)ccc1F)c1cncc(-c2ccc(OC3CC3)nc2)n1 [Compound 82, (E)-N'-(5-cyclopropoxy-2-fluorobenzylidene)-6-(6-cyclopropoxypyridine-3-yl)pyrazine-2-carbohydrazide] | < 500 | < 500
29 | CC(O)c1cccc(/C=N/NC(=O)c2cncc(-c3ccc(OC(F)F)nc3)n2)c1 (centres unmarked) [Compound 109, (E)-6-(6-(difluoromethoxy)pyridine-3-yl)-N'-(3-(1-hydroxyethyl)benzylidene) pyrazine-2-carbohydrazide] | > 1000 | 500 to 1000
30 | CCOc1ccc(-c2cncc(C(=O)N/N=C/c3cc(N4CCC4)ccc3F)n2)cn1 [Compound 38, (E)-N'-(5-(azetidin-1-yl)-2-fluorobenzylidene)-6-(6-ethoxypyridine-3-yl)pyrazine-2-carbohydrazide] | > 1000 | < 500
31 | CCOc1ccc(-c2cncc(C(=O)N/N=C/c3occc3OC)n2)cn1 [Compound 55, (E)-6-(6-ethoxypyridine-3-yl)-N'-((3-methoxyfuran-2-yl)methylene)pyrazine-2-carbohydrazide] | > 1000 | > 1000

— patent publication EP4660182A1, “NAV1.7- AND/OR NAV1.8-INHIBITING ARYL PYRIDINE COMPOUNDS, PROCESSES FOR THE PREPARATION THEREOF, COMPOSITIONS, USES, METHODS FOR TREATMENT USING SAME, AND KITS” (Eurofarma Laboratórios S.A., priority 2023, dated 2024)
